Measurements published in article PMC8185074, “Anchor extension: a structure-guided approach to design cyclic peptides targeting enzyme active sites” (Nature Communications, 2021).
Peptide text beside a SMILES is read from it.

Tests used:
[1] = target: T1, HDAC3 (Homo sapiens, UniProt O15379); assay: HDAC3 inhibition, full IC50 measurement (Reaction Biology; fluorogenic p53 peptide RHKK(Ac)AMC); type: biochemical
T1 construct: purchased Reaction Biology Corporation (assay run by the CRO)
Procedure: The assay was performed using 50 μM fluorogenic peptide from p53 residues 379-382 [RHKK(Ac)AMC] in a base reaction buffer of 50 mM Tris-HCl at pH 8.0, 137 mM NaCl, 2.7 mM KCl, 1 mM MgCl2, and freshly added 1 mg/ml BSA and 1% DMSO. Peptides were first dissolved in DMSO and then added to the reaction mixture with the enzyme using acoustic technique, enough to reach the desired concentration for that assay point. Peptide concentrations were calculated based on mass of lyophilized peptide and its molecular weight. The substrate was then added and incubated for 1 hour at 30 °C in a sealed container. After the incubation, developer was added to stop the reaction and develop color. Kinetic measurements were then performed for 20 min with Envision with 5 min intervals (Ex/Em = 360/460 nm). The endpoint after plateau was taken for IC50 measurement.
In cases where duplicate measures are used, average data is reported in the main text or Supplementary Tables.

[2] = target: T2, HDAC6 (Homo sapiens, UniProt Q9UBN7); assay: HDAC6 inhibition, full IC50 measurement (Reaction Biology; fluorogenic p53 peptide RHKK(Ac)AMC); type: biochemical
T2 construct: purchased Reaction Biology Corporation (assay run by the CRO)
T2 sequence (Q9UBN7 1-1215): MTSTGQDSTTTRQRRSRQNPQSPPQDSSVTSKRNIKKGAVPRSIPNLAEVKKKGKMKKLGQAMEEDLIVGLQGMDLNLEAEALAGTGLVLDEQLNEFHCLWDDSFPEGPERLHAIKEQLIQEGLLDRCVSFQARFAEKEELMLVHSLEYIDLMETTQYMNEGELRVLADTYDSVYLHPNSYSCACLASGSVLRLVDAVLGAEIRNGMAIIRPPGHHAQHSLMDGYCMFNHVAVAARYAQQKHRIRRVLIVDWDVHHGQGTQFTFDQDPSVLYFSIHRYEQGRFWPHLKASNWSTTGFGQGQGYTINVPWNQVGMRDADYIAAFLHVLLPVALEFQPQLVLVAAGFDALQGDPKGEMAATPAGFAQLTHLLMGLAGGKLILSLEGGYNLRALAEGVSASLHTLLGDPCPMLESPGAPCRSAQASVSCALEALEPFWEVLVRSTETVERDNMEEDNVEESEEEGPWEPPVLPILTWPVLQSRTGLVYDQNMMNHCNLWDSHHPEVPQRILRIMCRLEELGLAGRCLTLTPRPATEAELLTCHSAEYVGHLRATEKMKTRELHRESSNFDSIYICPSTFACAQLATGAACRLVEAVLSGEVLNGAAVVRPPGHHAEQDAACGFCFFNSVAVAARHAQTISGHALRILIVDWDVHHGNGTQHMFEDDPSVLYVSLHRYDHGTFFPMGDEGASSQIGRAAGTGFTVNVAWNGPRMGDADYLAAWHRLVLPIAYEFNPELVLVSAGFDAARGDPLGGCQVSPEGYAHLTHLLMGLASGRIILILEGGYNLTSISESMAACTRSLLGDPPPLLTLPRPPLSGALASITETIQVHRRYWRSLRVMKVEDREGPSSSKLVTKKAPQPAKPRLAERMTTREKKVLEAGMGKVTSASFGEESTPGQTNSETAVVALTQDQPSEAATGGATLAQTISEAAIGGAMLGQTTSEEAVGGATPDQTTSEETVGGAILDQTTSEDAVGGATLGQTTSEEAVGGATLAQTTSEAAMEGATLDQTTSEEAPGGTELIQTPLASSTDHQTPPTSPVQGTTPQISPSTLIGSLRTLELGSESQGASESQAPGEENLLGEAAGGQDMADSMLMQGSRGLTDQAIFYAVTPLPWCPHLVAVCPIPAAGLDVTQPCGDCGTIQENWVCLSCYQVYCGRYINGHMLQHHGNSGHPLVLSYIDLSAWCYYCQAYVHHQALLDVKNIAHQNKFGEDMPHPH
Method in brief: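 Reaction: enzyme plus acoustically dispensed peptide inhibitor, 50 μM RHKK(Ac)AMC substrate, pH 8.0 Tris buffer with BSA and 1% DMSO, 1 h, 30 °C. Duplicates averaged.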

T1 sequence (O15379 whole entry): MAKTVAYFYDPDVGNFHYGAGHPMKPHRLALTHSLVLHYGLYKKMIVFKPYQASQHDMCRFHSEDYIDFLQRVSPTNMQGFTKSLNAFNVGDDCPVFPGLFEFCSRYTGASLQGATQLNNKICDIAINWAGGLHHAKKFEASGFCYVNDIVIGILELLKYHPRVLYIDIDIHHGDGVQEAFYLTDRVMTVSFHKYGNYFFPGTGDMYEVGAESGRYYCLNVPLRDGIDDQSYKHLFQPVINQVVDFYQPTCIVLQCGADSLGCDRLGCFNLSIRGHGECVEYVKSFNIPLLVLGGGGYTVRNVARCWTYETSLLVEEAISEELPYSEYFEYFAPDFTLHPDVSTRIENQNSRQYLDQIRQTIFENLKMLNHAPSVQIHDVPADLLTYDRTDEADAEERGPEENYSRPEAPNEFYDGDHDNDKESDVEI
T1 sequence (Q9Y618 395-489 partner limits assumed): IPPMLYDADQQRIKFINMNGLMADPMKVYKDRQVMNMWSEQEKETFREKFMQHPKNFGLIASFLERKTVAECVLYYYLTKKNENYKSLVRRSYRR

Q: What does the source list for `C[C@H](O)[C@H]1NC(=O)[C@H](Cc2c[nH]c3ccccc23)NC(=O)[C@H](CCCCCS)NC(=O)[C@H](CCCCN)NC(=O)[C@@H](CC(=O)O)NC(=O)[C@@H](CCCCN)NC(=O)[C@@H](CO)NC(=O)[C@H](CC(N)=O)NC(=O)[C@H](CC(=O)O)NC1=O` [des2.1.0, SHA-Trp-dThr-Asp-Asn-dSer-dLys-dAsp-Lys] (HELM PEPTIDE1{D.N.[dS].[dK].[dD].K.[O=C([C@H](CCCCCS)N[*:1])[*:2]].W.[dT]}$PEPTIDE1,PEPTIDE1,1:R1-9:R2$$$V2.0)?
A: HDAC3 activity raw data (signal) ([1]; Conc. 1.00E-05 M, t1): 14719; HDAC3 activity raw data (signal) ([1]; Conc. 1.00E-05 M, t2): 13801; HDAC3 activity raw data (signal) ([1]; Conc. 1.11E-06 M, t1): 92063; HDAC3 activity raw data (signal) ([1]; Conc. 1.11E-06 M, t2): 96957; HDAC3 activity raw data (signal) ([1]; Conc. 1.23E-07 M, t1): 462933; HDAC3 activity raw data (signal) ([1]; Conc. 1.23E-07 M, t2): 478168; HDAC3 activity raw data (signal) ([1]; Conc. 1.37E-08 M, t1): 1054714; HDAC3 activity raw data (signal) ([1]; Conc. 1.37E-08 M, t2): 1114131; HDAC3 activity raw data (signal) ([1]; Conc. 1.52E-09 M, t1): 1368847; HDAC3 activity raw data (signal) ([1]; Conc. 1.52E-09 M, t2): 1246343; HDAC3 activity raw data (signal) ([1]; Conc. 3.33E-06 M, t1): 35860; HDAC3 activity raw data (signal) ([1]; Conc. 3.33E-06 M, t2): 35981; HDAC3 activity raw data (signal) ([1]; Conc. 3.70E-07 M, t1): 254333; HDAC3 activity raw data (signal) ([1]; Conc. 3.70E-07 M, t2): 260454; HDAC3 activity raw data (signal) ([1]; Conc. 4.12E-08 M, t1): 754531; HDAC3 activity raw data (signal) ([1]; Conc. 4.12E-08 M, t2): 801621; HDAC3 activity raw data (signal) ([1]; Conc. 4.57E-09 M, t1): 1235523; HDAC3 activity raw data (signal) ([1]; Conc. 4.57E-09 M, t2): 1319114; HDAC3 activity raw data (signal) ([1]; Conc. 5.08E-10 M, t1): 1390666; HDAC3 activity raw data (signal) ([1]; Conc. 5.08E-10 M, t2): 1409656; HDAC6 activity raw data (signal) ([2]; Conc. 1.00E-05 M, t1): 11243; HDAC6 activity raw data (signal) ([2]; Conc. 1.00E-05 M, t2): 1739; HDAC6 activity raw data (signal) ([2]; Conc. 1.11E-06 M, t1): 28172; HDAC6 activity raw data (signal) ([2]; Conc. 1.11E-06 M, t2): 21097; HDAC6 activity raw data (signal) ([2]; Conc. 1.23E-07 M, t1): 158713; HDAC6 activity raw data (signal) ([2]; Conc. 1.23E-07 M, t2): 131097; HDAC6 activity raw data (signal) ([2]; Conc. 1.37E-08 M, t1): 435775; HDAC6 activity raw data (signal) ([2]; Conc. 1.37E-08 M, t2): 375237; HDAC6 activity raw data (signal) ([2]; Conc. 1.52E-09 M, t1): 580209; HDAC6 activity raw data (signal) ([2]; Conc. 1.52E-09 M, t2): 526073; HDAC6 activity raw data (signal) ([2]; Conc. 3.33E-06 M, t1): 12962; HDAC6 activity raw data (signal) ([2]; Conc. 3.33E-06 M, t2): 9723; HDAC6 activity raw data (signal) ([2]; Conc. 3.70E-07 M, t1): 70613; HDAC6 activity raw data (signal) ([2]; Conc. 3.70E-07 M, t2): 63583; HDAC6 activity raw data (signal) ([2]; Conc. 4.12E-08 M, t1): 283586; HDAC6 activity raw data (signal) ([2]; Conc. 4.12E-08 M, t2): 230477; HDAC6 activity raw data (signal) ([2]; Conc. 4.57E-09 M, t1): 537641; HDAC6 activity raw data (signal) ([2]; Conc. 4.57E-09 M, t2): 486475; HDAC6 activity raw data (signal) ([2]; Conc. 5.08E-10 M, t1): 609077; HDAC6 activity raw data (signal) ([2]; Conc. 5.08E-10 M, t2): 536924
